Assay results reported in patent US20230002336A1, “MrgprX2 Antagonists and Uses Thereof” (Dermira, Inc., priority 2019, published 2023).

Target: T1, Human MrgprX2 (Homo sapiens, UniProt Q96LB1)
T1 construct: expressed in transfected cells; host or cells: recombinant cells
T1 sequence (Q96LB1 1-330): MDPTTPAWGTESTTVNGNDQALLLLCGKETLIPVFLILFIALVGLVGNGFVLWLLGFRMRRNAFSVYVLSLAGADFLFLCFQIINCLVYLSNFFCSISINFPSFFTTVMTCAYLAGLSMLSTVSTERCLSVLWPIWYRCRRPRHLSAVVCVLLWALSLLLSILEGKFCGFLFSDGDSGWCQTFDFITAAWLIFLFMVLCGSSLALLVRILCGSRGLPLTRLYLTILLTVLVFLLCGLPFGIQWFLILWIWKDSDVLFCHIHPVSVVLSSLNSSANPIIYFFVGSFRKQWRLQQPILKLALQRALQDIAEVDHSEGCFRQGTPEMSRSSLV
Assay: FLIPR intracellular calcium mobilization antagonist assay in recombinant hMrgpMRGPRX2 expressing cells
Assay type: cell-based
Conditions: antagonist activity, read-out: Human MrgprX2 Antagonist pIC50 (converted)
Text: [Worded in the source for another species; this species is reported under the same test.] The assays used to determine potencies are functional read-out looking at intracellular calcium mobilization using the FLIPR™ technology. In these FLIPR assays, we test the identified compounds using recombinant cellular systems expressing mouse MrgprB2, mouse MrgprA1, gerbil MrgpMRGPRX2 orthologue, Chinese hamster MrgpMRGPRX2 orthologue and cynomolgus monkey MrgpMRGPRX2 orthologue, respectively for orthologue activity.

Compound	IC50 [nM]
CN(CC(C)(O)C(F)(F)F)C(=O)Nc1nnc(Cc2cccc(F)c2)s1 (single isomer, unassigned) [Example E50, 3-[5-[(3-fluorophenyl)methyl]-1,3,4-thiadiazol-2-yl]-1-methyl-1-(3,3,3-trifluoro-2-hydroxy-2-methyl-propyl)urea]	295
CN(CC(C)(O)C(F)(F)F)C(=O)Nc1nnc(Cc2cccc(F)c2)s1 (single isomer, unassigned) [Example E51, 3-[5-[(3-fluorophenyl)methyl]-1,3,4-thiadiazol-2-yl]-1-methyl-1-(3,3,3-trifluoro-2-hydroxy-2-methyl-propyl)urea]	10000
CCN(CC(C)(O)C(F)(F)F)C(=O)Nc1nnc(Cc2cccc(F)c2)s1 (single isomer, unassigned) [Example E52, 1-ethyl-3-[5-[(3-fluorophenyl)methyl]-1,3,4-thiadiazol-2-yl]-1-(3,3,3-trifluoro-2-hydroxy-2-methyl-propyl)urea]	50.1
CCN(CC(C)(O)C(F)(F)F)C(=O)Nc1nnc(Cc2cccc(F)c2)s1 (single isomer, unassigned) [Example E53, 1-ethyl-3-[5-[(3-fluorophenyl)methyl]-1,3,4-thiadiazol-2-yl]-1-(3,3,3-trifluoro-2-hydroxy-2-methyl-propyl)urea]	3390
CC(C)C(=O)Nc1nnc(Cc2cccc(F)c2)s1 [Example E01, N-[5-[(3-fluorophenyl)methyl]-1,3,4-thiadiazol-2-yl]-2-methyl-propanamide]	2510
CC(C)C(=O)Nc1nnc(Cc2ccc(F)cc2)s1 [Example E02]	7940
CC(C)C(=O)Nc1nnc(Cc2cc(F)cc(F)c2)s1 [Example E03]	251
CC(C)C(=O)Nc1nnc(Cc2cccc(F)c2F)s1 [Example E04]	1260
CC(C)C(=O)Nc1nnc(Cc2cc(F)ccc2F)s1 [Example E05]	2510
CC(C)C(=O)Nc1nnc(Cc2ccc(F)c(F)c2)s1 [Example E06]	1580
CC1(C(=O)Nc2nnc(Cc3cc(F)cc(F)c3)s2)CCOCC1 [Example E07]	1000
CC1(C(=O)Nc2nnc(Cc3cc(F)cc(F)c3)s2)CCOC1 (stereo not drawn) [Example E08]	2000
CCN(C[C@H](C)O)C(=O)Nc1nnc(Cc2cccc(F)c2F)s1 [Example E09, 3-[5-[(2,3-difluorophenyl)methyl]-1,3,4-thiadiazol-2-yl]-1-ethyl-1-[(2S)-2-hydroxypropyl]urea]	1580
CCN(C[C@H](C)O)C(=O)Nc1nnc(Cc2cc(F)cc(F)c2)s1 [Example E10]	251
CCN(C[C@H](C)O)C(=O)Nc1nnc(Cc2cccc(F)c2)s1 [Example E11]	3160
CCN(C[C@H](C)O)C(=O)Nc1nnc(Cc2cc(F)ccc2F)s1 [Example E12]	2000
CCN(C[C@H](C)O)C(=O)Nc1nnc(Cc2ccc(F)c(F)c2)s1 [Example E13]	2000
C[C@H](O)CN(C)C(=O)Nc1nnc(Cc2cc(F)cc(F)c2)s1 [Example E14]	2510
C[C@@H](O)CN(C)C(=O)Nc1nnc(Cc2cc(F)cc(F)c2)s1 [Example E15]	3980

Compound	IC50 [nM]
O=C(Nc1nnc(Cc2cc(F)cc(F)c2)s1)N1CCC[C@@H]1CO [Example E16]	2000
CC(CO)N(C)C(=O)Nc1nnc(Cc2cc(F)cc(F)c2)s1 (stereo not drawn) [Example E17]	3980
CN(CC(C)(C)O)C(=O)Nc1nnc(Cc2cc(F)cc(F)c2)s1 [Example E20]	200
CCN(C[C@H](C)O)C(=O)Nc1nnc(Cc2cccc(C)c2)s1 [Example E21]	7940
CCN(C[C@H](C)O)C(=O)Nc1nnc(Cc2cc(C)cc(F)c2)s1 [Example E22]	794
CCN(C[C@@H](O)C(F)(F)F)C(=O)Nc1nnc(Cc2cc(F)cc(F)c2)s1 [Example E23]	7.94
CCN(C[C@H](C)O)C(=O)Nc1nnc(Cc2cc(F)cc(Cl)c2)s1 [Example E24]	100
O=C(Nc1nnc(Cc2cc(F)cc(F)c2)s1)N1CCCC1 [Example E25]	7940
CN(CC1CCCO1)C(=O)Nc1nnc(Cc2cc(F)cc(F)c2)s1 (stereo not drawn) [Example E26]	1260
CN(CC1CCOC1)C(=O)Nc1nnc(Cc2cc(F)cc(F)c2)s1 (stereo not drawn) [Example E27]	6310
O=C(Nc1nnc(Cc2cc(F)cc(F)c2)s1)N1CC[C@H](O)C1 [Example E28]	5010
O=C(Nc1nnc(Cc2cc(F)cc(F)c2)s1)N1CCC(C(F)(F)F)C1 (stereo not drawn) [Example E29]	631
CCN(CC1(O)CC1)C(=O)Nc1nnc(Cc2cc(F)cc(F)c2)s1 [Example E30]	79.4
CN(CC1(O)CC1)C(=O)Nc1nnc(Cc2cc(F)cc(F)c2)s1 [Example E31]	1260
CCN(C[C@H](C)O)C(=O)Nc1nnc(Cc2cc(Cl)cc(Cl)c2)s1 [Example E32]	158
CN(CC(C)(O)C(F)(F)F)C(=O)Nc1nnc(Cc2cc(F)cc(F)c2)s1 (stereo not drawn) [Example E33]	15.8
CCN(C[C@H](C)O)C(=O)Nc1nnc(Cc2cc(Cl)ccc2F)s1 [Example E34]	3980
CCN(C[C@H](C)O)C(=O)Nc1nnc(Cc2ccc(F)c(Cl)c2)s1 [Example E35]	794
CCN(C[C@@H](O)C(F)(F)F)C(=O)Nc1nnc(Cc2cccc(F)c2)s1 [Example E36]	200

Compound	IC50 [nM]
CCN(C[C@@H](O)C(F)(F)F)C(=O)Nc1nnc(Cc2cccc(Cl)c2)s1 [Example E37]	158
CCN(CC(C)(C)O)C(=O)Nc1nnc(Cc2cc(F)cc(F)c2)s1 [Example E38]	39.8
CCN(CC(C)(C)O)C(=O)Nc1nnc(Cc2cccc(F)c2)s1 [Example E39]	724
CN(CC(C)(O)C(F)(F)F)C(=O)Nc1nnc(Cc2cccc(F)c2)s1 (stereo not drawn) [Example E40, 3-[5-[(3-fluorophenyl)methyl]-1,3,4-thiadiazol-2-yl]-1-methyl-1-(3,3,3-trifluoro-2-hydroxy-2-methyl-propyl)urea]	316
CCN(CC(C)(C)O)C(=O)Nc1nnc(Cc2cc(F)cc(Cl)c2)s1 [Example E41]	16.6
CCN(CC(C)(O)C(F)(F)F)C(=O)Nc1nnc(Cc2cccc(F)c2)s1 (stereo not drawn) [Example E42, 1-ethyl-3-[5-[(3-fluorophenyl)methyl]-1,3,4-thiadiazol-2-yl]-1-(3,3,3-trifluoro-2-hydroxy-2-methyl-propyl)urea]	47.9
CCN(C[C@@H](O)C(F)(F)F)C(=O)Nc1nnc(Cc2cc(C)cc(F)c2)s1 [Example E43]	69.2
CN(CC(C)(C)O)C(=O)Nc1nnc(Cc2cc(Cl)cc(Cl)c2)s1 [Example E44]	162
CN(C[C@@H](O)C(F)(F)F)C(=O)Nc1nnc(Cc2cc(Cl)cc(Cl)c2)s1 [Example E45]	288
CCN(CC(C)(C)O)C(=O)Nc1nnc(Cc2cc(C)cc(F)c2)s1 [Example E46]	372
CN(C[C@@H](O)C(F)(F)F)C(=O)Nc1nnc(Cc2cc(F)cc(Cl)c2)s1 [Example E47]	135
CCN(C[C@@H](O)C(F)(F)F)C(=O)Nc1nnc(Cc2cc(F)cc(Cl)c2)s1 [Example E48]	14.1
CCN(C[C@@H](O)C(F)(F)F)C(=O)Nc1nnc(Cc2cc(Cl)cc(Cl)c2)s1 [Example E49]	38
CN(C[C@](C)(O)C(F)(F)F)C(=O)Nc1nnc(Cc2cc(F)cc(F)c2)s1 [Example E54, 3-[5-[(3,5-difluorophenyl)methyl]-1,3,4-thiadiazol-2-yl]-1-methyl-1-[(2S)-3,3,3-trifluoro-2-hydroxy-2-methyl-propyl]urea]	126
CN(C[C@@](C)(O)C(F)(F)F)C(=O)Nc1nnc(Cc2cc(F)cc(F)c2)s1 [Example E55]	10
CN(C[C@@](C)(O)C(F)(F)F)C(=O)Nc1nnc(Cc2cc(F)cc(Cl)c2)s1 [Example E56]	16.2
Cc1cc(F)cc(Cc2nnc(NC(=O)N(C)C[C@@](C)(O)C(F)(F)F)s2)c1 [Example E57]	85.1
CC(C)NC(=O)c1nnc(Cc2cc(F)cc(F)c2)s1 [Example E58, 5-[(3,5-difluorophenyl)methyl]-N-isopropyl-1,3,4-thiadiazole-2-carboxamide]	3160
CCN(C[C@H](C)O)C(=O)Nc1nnc(C(C)(C)c2cc(F)cc(F)c2)s1 [Example E59, 3-[5-[1-(3,5-difluorophenyl)-1-methyl-ethyl]-1,3,4-thiadiazol-2-yl]-1-ethyl-1-[(2S)-2-hydroxypropyl]urea]	2510
